Test: Binding affinity to human 6His-thr cIAP1 BIR3 (253 to 363) domain expressed in Escherichia coli measured after 105 mins in dark by time-resolved fluorescence laser-equipped multimode plate reader

IC50 | Structure (SMILES)
5 nM | Cc1[nH]nc(Nc2ncnc3cc(OCCCN4CCN(C(=O)c5cnc(N6CCN(C[C@H]7CN[C@H](C)CN7CC(=O)N7CC(C)(C)c8c7cc(Cc7ccc(F)cc7)c(=O)n8C)[C@H](C)C6)nc5)CC4)c(S(=O)(=O)C(C)(C)C)cc23)c1C
7.9 nM | CN[C@@H](C)C(=O)N[C@H](C(=O)N1CCC[C@H]1c1nc(C(=O)c2ccc(F)cc2)cs1)C1CCN(C(=O)c2cnc(N3CCN(CCCOc4cc5ncnc(Nc6n[nH]c(C)c6C)c5cc4S(=O)(=O)C(C)(C)C)CC3)cn2)CC1
